Read-outs that look alike come from different tables or passages of the source.
Legend:
[1] = system: Mouse leukemia cells L1210; assay: Experiment 1 anti-tumor activity test in L1210 implanted CDF1 mice; assay type: in vivo; conditions: for T/C: L1210 i.p. implanted CDF1 mice; for Number of survived mice (on 30th day): survivors/total on 30th day
Experimental: Mouse leukemia cells L1210 (1×10^5) were implanted intraperitoneally to CDF1 mice (female, aged: 8 weeks) on the 0 day of implantation. CDDP and CBDCA were used as a reference. The anti-tumor activity of the platinum complexes in L1210 implanted mice were expressed by the T/C value, which was determined according to the following equation, and by the number of mice which survived until the 30th day of implantation. [formula]

[2] = Experiment 3 blood urea nitrogen (BUN) and body weight in ICR mice; conditions: for Difference of weights: average weight 12th day vs 1st day; for BUN value: blood on 12th day, control 27.2 ± 1.9
Experimental: (§1) Test compounds were administered to ICR mice (aged: 8 weeks) on the 1st day, the 5th day and the 9th day. The blood was collected therefrom on the 12th day, and the concentrations of blood urea nitrogen (BUN) were determined.
(§2) *Control group: druguntreated normal mouse

[3] = system: cisplatin resistant mouse leukemia cells L1210 (L1210/CDDP); assay: Experiment 2 growth inhibition of cisplatin resistant L1210/CDDP cells; assay type: cell-based
L1210 cells = assay: Experiment 2 growth inhibition of L1210 cells; assay type: cell-based, mouse; conditions: text calls it IC50
Experimental: The drug sensitivity (a) was determined according to the following equation. [formula]

[4] = mouse, in vivo
Experimental: as §1, §2

Row | Molecule | T/C ([1]; dose 12.5 mg/kg) [%] | Number of survived mice (on 30th day) ([1]; dose 12.5 mg/kg) | T/C ([1]; dose 25 mg/kg) [%] | Number of survived mice (on 30th day) ([1]; dose 25 mg/kg) | T/C ([1]; dose 50 mg/kg) [%] | Number of survived mice (on 30th day) ([1]; dose 50 mg/kg) | T/C ([1]; dose 100 mg/kg) [%] | Number of survived mice (on 30th day) ([1]; dose 100 mg/kg) | IC50 L1210/CDDP [3] [µg/mL] | other results
1 | N.N.O=C([O-])C1(C(=O)[O-])CCC1.[Pt+2] [CBDCA, cisdiamino-1,1-cyclobutanedicarboxylato platinum (II)] | 139 | 0/6 | 199 | 0/6 | 340 | 2/6 | 366 | 2/6 | 1.82 | Difference of weights ([2]; dose 100 mg/kg on days 1, 5, 9): -3.0 g; BUN value ([2]; dose 100 mg/kg on days 1, 5, 9): 21.0 ± 4.0 mg/dL; IC50 (L1210 cells): 0.25 µg/mL
2 | N.N.[Cl][Pt][Cl] [CDDP, cis-dichlorodiamine platinum (II)] | 282 | 1/6 | 367 | 4/6 | – | – | – | – | 0.50 | T/C ([1]; dose 6.25 mg/kg): 227%; Number of survived mice (on 30th day) ([1]; dose 6.25 mg/kg): 0/6; Difference of weights ([2]; dose 18 mg/kg on days 1, 5, 9): -4.8 g; BUN value ([2]; dose 18 mg/kg on days 1, 5, 9): 83.7 mg/dL; Difference of weights ([2]; dose 25 mg/kg on days 1, 5, 9): -8.9 g; BUN value ([2]; dose 25 mg/kg on days 1, 5, 9): 112.3 ± 16.6 mg/dL
3 | CC(CN)(CN)C(F)(F)F.O=C([O-])C1(C(=O)[O-])CCC1.[Pt+2] [Compound of Ex. 2, cis-(2-methyl-2-trifluoromethyl-1,3-propanediamine)-1,1-cyclobutanedicarboxylato platinum (II)] | – | – | – | – | 192 | 0/6 | 267 | 0/6 | – | –
4 | cis-dichloro-(2-methyl-2-trifluoromethyl-1,3-propanediamine)platinum (II) [Compound of Ex. 1] | > 304 | 3/6 | 375 | 6/6 | 273 | 0/6 | – | – | 0.10 | BUN value ([4]; 25 mg/kg): 23.3 mg/dL; Difference of weights ([4]; 25 mg/kg): -2.3 g; BUN value ([4]; 50 mg/kg): 17.8 mg/dL; Difference of weights ([4]; 50 mg/kg): -5.4 g
